Results: patent publication US11484533B2, “Methods and compositions for treating obesity” (UNIVERSITY OF SOUTH CAROLINA, priority 2019, dated 2022)

Legend:
[1] = system: macrophage CB1; assay: BMDM treated in vitro with 3T3-L1 adipocyte conditioned medium and SR141716A; assay type: cell-based, mouse; settings: adipocyte conditioned medium, vs DMSO
Description: TNF, IL-6, and IFNγ ELISA kits were purchased from BioLegend. Netrin-1 ELISA kits were purchased from USCN Life Science (Houston, Tex.). Concentrations were measured in cell supernatants using mouse standards according to the manufacturer's guidelines.
Next, to confirm that the M2 polarization and decreased ATM retention observed in HFD+SR treated mice was a direct effect of CB1 blockade and not a secondary effect due to weight loss or other factors, primary macrophages were treated in vitro with 3T3-L1 adipocyte conditioned media and SR141716A or DMSO vehicle control. […] These findings confirmed that blockade of macrophage CB1 signaling has anti-inflammatory effects.

[2] = system: obese patients; settings: cited from earlier work
[3] = system: thioglycollate-elicited peritoneal macrophages; assay: Migration of peritoneal macrophages towards CCL19; assay type: cell-based, mouse; settings: SR141716A 10^−6 M vs DMSO; CCL19 500 ng/ml; 3T3-L1 conditioned medium
Description: The migration of macrophages to CCL19 (500 ng/ml, R&D Systems) was assessed by FluoroBlock™ permeable inserts (Corning®, Tewksbury, Mass.) and Cytation™5 imaging (BioTek, Winooski, Vt.). Peritoneal macrophages were harvested from mice primed with 1 ml of 3% (wt/vol) thioglycolate (i.p.) to elicit peritoneal exudates with macrophage number peaking on day 4. Macrophages were collected in euthanized mice by intraperitoneal wash. For tracking migration towards chemoattractants, macrophages were labeled with DilC12(3) fluorescent dye (Corning®, Tewksbury, Mass.). Macrophages were treated with conditioned media from 3T3-L1 adipocytes as described and treated either with SR141716A (10^−6 M) or DMSO as the vehicle control.
To test this, thioglycollate-elicited peritoneal macrophages were isolated and cultured them in 3T3-L1 adipocyte conditioned medium and treated them with SR141716A or vehicle. Their migration rate towards CCL19 was measured because CCL19 is the primary chemokine implicated in emigration of tissue macrophages towards draining lymph nodes.

[4] = system: DIO mice; settings: cited from earlier work
[5] = system: DIO mice; assay: Diet-induced obesity (DIO) mice treated with SR141716A: body weight, caloric intake, DEXA body composition; assay type: in vivo, C57BL/6J male mice
Description: (§1) C57BL/6J male mice (Jackson Laboratory, Bar Harbor, Me.) were fed HFD consisting of 60% Kcal from fat (D12492, Research Diets Inc, New Brunswick, N.J.) for 12 weeks before starting the intervention treatment with SR141716A. Additionally, age-matched C57BL/6J male mice were fed a low fat diet (LFD) consisting of 10% Kcal from fat (D12450J, Research Diets Inc, New Brunswick, N.J.) to develop lean controls. SR141716A was obtained from NIDA and administered at a dose of 10 mg/kg daily by oral gavage for 4 weeks, beginning after 12 weeks of diet and ending after 16 weeks. A pair-fed control group was used (HFD-PFSR) in which food intake was restricted to the amount of daily food intake of the HFD+SR group. All mice were maintained in an AAALAC-accredited animal facility at the University of South Carolina, School of Medicine (Columbia, S.C.). All procedures were performed according to NIH guidelines under protocols approved by the Institutional Animal Care and Use Committee.
The body composition in mice was analyzed by dual-energy X-ray absorptiometry (DEXA, LUNAR, Madison, Wis.). The mice were anesthetized and placed in the prone position on the specimen tray to allow scanning of the entire body. For food intake measurements, mice were given a defined amount of large intact food pellet weekly, or daily for the HFD-PFSR group. Food weight was measured using a balance with a precision of 0.01 g. Solid food intake was corrected for any visible spillage.
To study the effects of CB1 antagonist on obesity parameters, DIO mice that were fed a 60% HFD for 12 weeks were treated with SR141716A (SR) by daily oral gavage for 4 weeks (FIG. 1A). All other experimental groups were treated with the vehicle (Veh) 0.1% Tween® 80. In addition to the HFD+SR group, other experimental groups included mice fed a 10% low-fat control diet (LFD) (LFD+Veh), ad-libitum HFD-fed mice (HFD+Veh), and HFD-fed mice that were pair-fed to the HFD+SR group (HFD-PFSR) (FIG. 1B). […] At the baseline of the study, the mice were stratified into groups balanced by mean fat mass. […] Fasting parameters including blood glucose, insulin, insulin resistance index (HOMA-IR), total cholesterol and triglycerides were examined pre- and post- the 4-week intervention with SR compound.

[6] = system: adipose tissue macrophages (ATMs); assay: qRT-PCR and Western blot in adipose tissue macrophages (ATM) of treated DIO mice; assay type: in vivo, C57BL/6J male mice
Description: Epididymal fat pads of mice were excised and placed in gentleMACS™ C Tubes (Miltenyi Biotec, San Diego, Calif.) containing digestion medium (HBSS, 2 mg/ml collagenase (Sigma-Aldrich, St. Louis, Mo.) and 2% BSA), followed by homogenization utilizing a gentleMACS™ Dissociator (Miltenyi Biotec). After incubation at 37° C. for 30 minutes with gentle shaking, the cell suspension was filtered through a 100-μm filter and then spun at 300 g for 5 minutes to separate floating adipocytes from the stromal vascular fraction (SVF) pellet. Isolation of F4/80+ ATMs from the SVF was performed using EasySep™ FITC Positive Selection Kit (STEMCELL Technologies, Vancouver, B.C.). FITC-anti-F4/80 antibodies (Clone: BM8, BioLegend®, San Diego, Calif.) were used to label the cells for positive selection. Isolated cells were lysed for RNA analysis in QIAzol (Qiagen, Valencia, Calif.) and stored at −80° C. until RNA purification.
ATM RNA was isolated by miRNeasy Mini Kit (Qiagen). For RNA extraction from whole adipose tissue, 1 mg of adipose tissue was homogenized in RNA-Solv® Reagent with OBI's HiBind® technology reagent (Omega Bio-tek, Norcross, Ga.) and total RNA was isolated as previously described (31). RNA quality was verified by NanoDrop™ 2000C (Thermo Scientific™, Waltham, Mass.). Purified RNA (0.5-1 μg) was reverse-transcribed using miScript cDNA Synthesis Kit (Qiagen), and qRT-PCR analysis was conducted using SsoAdvanced™ Universal SYBR® Green Supermix kit (Bio-Rad, Hercules, Calif.). Fold change in mRNA expression was calculated using the comparative cycle method (2^−ΔΔCt).
Western blot analyses were carried out according to standard protocols with antibodies raised against Netrin-1 (R&D Systems, Minneapolis, Minn.) or γ-tubulin (Sigma-Aldrich, St. Louis, Mo.), which was used as a loading control.

[7] = system: epididymal adipose tissue; assay: qRT-PCR of macrophage polarization genes in epididymal fat of DIO mice; assay type: in vivo, C57BL/6J male mice
Description: as §1
After 4 weeks of treatment, mice were euthanized for tissue collection. Tissues were removed, weighed, and immediately processed to single cell suspension, snap-frozen in liquid nitrogen and stored at −80° C., or fixed in 10% formalin.
ATM RNA was isolated by miRNeasy Mini Kit (Qiagen). […] Fold change in mRNA expression was calculated using the comparative cycle method (2^−ΔΔCt).

[8] = system: DIO mice; assay: Fasting metabolic parameters in DIO mice, pre- and post-intervention; assay type: in vivo, C57BL/6J male mice; settings: HFD+SR vs HFD+Veh and HFD-PFSR; pre- and post- 4-week intervention; 5 h fasted
Description: as §1, with “All mice were maintained in an AAALAC-accredited animal facility at the University of South Carolina, School of Medicine (Columbia, S.C.). All procedures were performed according to NIH guidelines under protocols approved by the Institutional Animal Care and Use Committee.” left out
Measurements of blood glucose, insulin, total cholesterol, and triglycerides were performed in animals fasted for 5 hours. […] The glucose level in whole blood was measured with a glucometer (Bayer, Leverkusen, Germany). Insulin concentration was determined in isolated plasma using an ELISA kit (Abcam, Cambridge, Mass.). Total cholesterol (Genzyme, Kent, United Kingdom) and triglycerides (Pointe Scientific, Canton, Mich.) were determined by colorimetric enzymatic reaction according to the manufacturer's instructions. To quantify insulin resistance, the homeostatic model assessment of insulin resistance index (HOMA-IR) was calculated as previously described.

[9] = epididymal adipose tissue of DIO mice, previous report
[10] = DIO mice, 10 mg/kg daily oral gavage, 4 weeks
[11] = after 4 weeks of treatment, HFD+SR vs both HFD+Veh and HFD-PFSR, DEXA

Cc1c(C(=O)NN2CCCCC2)nn(-c2ccc(Cl)cc2Cl)c1-c1ccc(Cl)cc1 [SR141716A, 5-(4-chlorophenyl)-1-(2,4-dichlorophenyl)-4-methyl-N-piperidin-1-ylpyrazole-3-carboxamide]
Klf4 expression ([1]; BMDM): induction of Klf4 and Stat6 | Stat6 expression ([1]; BMDM): induction of Klf4 and Stat6 | Netrin-1 secretion ([1]; macrophages, ELISA): reduced | weight loss ([2]; obese patients, compared with placebo): greater weight loss | adverse effects ([2]; reason for removal from the market): adverse psychiatric effects | migration towards CCL19 [3]: higher migration towards CCL19 | number of pro-inflammatory M1 macrophages in adipose tissue ([4]; HFD+SR vs HFD+Veh, previously demonstrated): significant decrease | ATM infiltration [4, 9]: reduces both ATM infiltration and M1 polarization | M1 polarization [4, 9]: reduces both ATM infiltration and M1 polarization | body weight [5, 10]: acute and persistent weight loss | calorie intake [5, 10]: transient reduction of calorie intake | changes in lean mass ([5]; after 4 weeks of treatment, HFD+SR vs HFD+Veh and HFD-PFSR, DEXA): not significant | fat mass [5, 11]: reduction in the fat mass and fat percentage was significant | fat percentage [5, 11]: reduction in the fat mass and fat percentage was significant | Netrin-1 expression at protein and transcription level ([6]; ATM, HFD+SR vs HFD+Veh, Western blot and qRT-PCR): significantly reduced | miR-466 family expression ([6]; ATMs, microarray validated by qRT-PCR, regardless of calorie intake): down-regulated | Agap2 expression ([6]; ATMs, qRT-PCR): increased | miR-762 expression ([6]; ATMs, qRT-PCR): reduced | Unc5b expression ([6]; HFD+SR vs HFD+Veh): downregulated | Arg1 (M2) expression [7]: increased expression of Arg1 | Nos2 (M1) expression [7]: lowered Nos2 expression | metabolic parameters (fasting blood glucose, insulin, HOMA-IR, total cholesterol, triglycerides) [8]: improvement in metabolic parameters
